# Test results taken from PubChem BioAssay (NCI).
# Several values for one entry are separate records, joined by “and”; a condition that tells them apart may be missing. Equal values may be shown once.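 Values below derive from 48-hour exposures of cells grown in 96-well plates, with endpoints linearly interpolated between the two concentrations bracketing the appropriate inhibition level. Here, GI50 denotes the concentration required for 50% inhibition of growth. TGI is the concentration that stops growth completely.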
# Tests used:
# Experiment in all cases: growth of human tumour cells (NCI), 48 h
# NCI-H226 lung = tested on: NCI-H226 lung
# HCT-116 colon = tested on: HCT-116 colon
# K-562 leukemia = tested on: K-562 leukemia
# SR leukemia = tested on: SR leukemia
# UACC-257 melanoma = tested on: UACC-257 melanoma
# HT29 colon = tested on: HT29 colon
# NCI-H460 lung = tested on: NCI-H460 lung
# CAKI-1 renal = tested on: CAKI-1 renal
# A498 renal = tested on: A498 renal
# COLO 205 colon = tested on: COLO 205 colon
SMILES,TGI (NCI-H226 lung),TGI (HCT-116 colon),TGI (K-562 leukemia),TGI (SR leukemia),TGI (UACC-257 melanoma),TGI (HT29 colon),TGI (NCI-H460 lung),TGI (CAKI-1 renal),TGI (A498 renal),TGI (COLO 205 colon),GI50 (NCI-H226 lung),GI50 (HCT-116 colon),GI50 (K-562 leukemia),GI50 (SR leukemia),GI50 (UACC-257 melanoma),GI50 (HT29 colon),GI50 (CAKI-1 renal),GI50 (A498 renal),GI50 (COLO 205 colon),GI50 (NCI-H460 lung)
Oc1cc2cc(-c3ccccc3)[nH]c2c2ccccc12,> 100 µM,37.1 µM,> 88.8 µM,> 93.6 µM,32.5 µM,> 100 µM,72.1 µM,90.8 µM,> 100 µM,> 37.8 µM,,,,,,,,,,
Cc1cc(N(CCC#N)S(=O)(=O)c2ccccc2)ccc1C=O,> 100 µM,> 100 µM,> 100 µM,> 100 µM,> 100 µM,> 100 µM,> 100 µM,> 100 µM,> 100 µM,> 100 µM,,,,,,,,,,
O=C1c2c(O)cccc2C(C(=O)CCCCC(=O)C2c3cccc(O)c3C(=O)c3c(O)cccc32)c2cccc(O)c21,2.27 µM and 2.89 µM,2.1 µM and 6.82 µM,7.66 µM and 2.49 µM,25 µM and 2.87 µM,1.34 µM and 2.96 µM,1.67 µM and 5.67 µM,1.35 µM and 1.65 µM,8.43 µM and 9.38 µM,5.27 µM and 7.36 µM,3.36 µM and 2.21 µM,1100 nM,1930 nM,1210 nM,1410 nM,1380 nM,1770 nM,3240 nM,2140 nM,1020 nM,
c1ccc2c(c1)nc(NCCN1CCNCC1)c1c3ccccc3[nH]c21,3.91 µM,1.42 µM,2.07 µM,1.33 µM,3.27 µM,1.53 µM,1.14 µM,2.81 µM,3.27 µM,1.87 µM,1200 nM,165 nM,93.5 nM,226 nM,1710 nM,167 nM,454 nM,1560 nM,346 nM,221 nM
COc1ccc(S(=O)(=O)N/N=C/C(=O)O)cc1,> 1220 µM,1030 µM,> 1170 µM,603 µM,> 1250 µM,> 580 µM,> 1230 µM,1230 µM,1210 µM,> 1250 µM,,,,,,,,,,
